# How the values were obtained:
# Hepatitis B virus = assay: Antiviral activity against HBV infected in human HepAD38 cells assessed as inhibition of viral DNA at 10 uM incubated for 4 days by SYBR green dye based RT-PCR analysis relative to control; type: functional; conditions: HePAD38, 96 h, time 4 day
# [1] = Cytotoxicity against human HePAD38 cells assessed as cell viability incubated for 72 hrs by MTT assay; type: cell-based
# [2] = Cytotoxicity against human HepG2 cells assessed as cell viability incubated for 72 hrs by MTT assay; type: cell-based
SMILES,inhibition at 10 µM (Hepatitis B virus),CC50 at 72 h [1],CC50 at 72 h [2]
C=C1CC[C@H](OC(C)=O)[C@@]2(C)[C@H]1[C@H](OC(C)=O)[C@@]13O[C@@H](C(=C)[C@H](Cl)[C@@H]1OC(=O)[C@@H]3C)[C@@H](O)[C@@H]2OC(C)=O,10%,> 100 µM,> 100 µM
C=C1CC[C@H](OC(C)=O)[C@]2(C)[C@@H](OC(C)=O)/C=C/C(COC(C)=O)=C\[C@@H]3OC(=O)[C@H](C)[C@@]3(O)[C@@H](OC(C)=O)[C@@H]12,0%,> 100 µM,> 100 µM
C=C1/C=C/[C@H](OC(C)=O)[C@@]2(C)[C@@H](OC(C)=O)[C@@H](OC(C)=O)C[C@]3(CO3)[C@@H]2[C@H](OC(C)=O)[C@]2(O)[C@@H](C)C(=O)O[C@H]2[C@H]1Cl [FRAJUNOLIDE I],41%,> 100 µM,> 100 µM
C=C1/C=C\[C@H](OC(=O)COC(=O)CC(C)C)[C@@]2(C)[C@@H](OC(C)=O)CC[C@]3(CO3)[C@@H]2[C@H](OC(C)=O)[C@]2(O)[C@@H](C)C(=O)O[C@H]2[C@H]1Cl [FRAJUNOLIDE G],0%,> 100 µM,> 100 µM
C=C1[C@H](Cl)[C@@H]2OC(=O)[C@H](C)[C@]23O[C@@H]1[C@@H](O)[C@H](OC(C)=O)[C@@]1(C)[C@@H](OC(C)=O)[C@@H](OC(C)=O)C[C@]2(CO2)[C@@H]1[C@@H]3OC(C)=O,31%,> 100 µM,> 100 µM
C=C1CC[C@H](OC(C)=O)[C@]2(C)[C@@H](OC(C)=O)C[C@@H](OC(C)=O)/C(C(=O)OC)=C\[C@@H]3OC(=O)[C@H](C)[C@@]3(O)[C@@H](OC(C)=O)[C@@H]12,1%,> 100 µM,> 100 µM
C=C1[C@H](Cl)[C@@H]2OC(=O)[C@H](C)[C@]23O[C@]1(O)C[C@H](OC(C)=O)[C@@]1(C)[C@@H](OC(C)=O)CC[C@]2(CO2)[C@@H]1[C@@H]3OC(C)=O,4%,> 100 µM,> 100 µM
CC(=O)O[C@H]1CC[C@]2(CO2)[C@@H]2[C@H](OC(C)=O)[C@@]3(O)[C@H](/C=C(CCl)\C=C/[C@H](OC(=O)COC(=O)CC(C)C)[C@@]12C)OC(=O)[C@@H]3C,0%,> 100 µM,> 100 µM
"CC(=O)O[C@H]1CC[C@]2(CO2)[C@@H]2[C@H](OC(C)=O)[C@@]3(O)[C@H](/C=C(/C)[C@H](OC(C)=O)C[C@H](OC(C)=O)[C@@]12C)OC(=O)[C@@H]3C [11ALPHA,20ALPHA-EPOXYJUNCEELLOLIDE]",3%,> 100 µM,> 100 µM
C=C1CC[C@H](OC(C)=O)[C@]2(C)[C@@H](OC(C)=O)C[C@@H](OC(C)=O)C(=C)[C@H](Cl)[C@@H]3OC(=O)[C@H](C)[C@@]3(O)[C@@H](OC(C)=O)[C@@H]12,63%,> 100 µM,> 100 µM
C=C1CC[C@H](OC(C)=O)[C@@]2(C)[C@H]1[C@H](OC(C)=O)[C@@]13O[C@@H](C(=C)[C@H](Cl)[C@@H]1OC(=O)[C@@H]3C)[C@@H](OC(C)=O)[C@@H]2OC(C)=O,27%,> 100 µM,> 100 µM
C=C1CC[C@H](OC(=O)CC(C)C)[C@]2(C)[C@@H](OC(C)=O)C[C@@H](OC(C)=O)/C(C)=C\[C@@H]3OC(=O)[C@H](C)[C@@]3(O)[C@@H](OC(C)=O)[C@@H]12,0%,> 100 µM,> 100 µM
C=C1CC[C@H](OC(C)=O)[C@]2(C)[C@@H](OC(C)=O)C[C@@H](OC(C)=O)/C(COC(C)=O)=C\[C@@H]3OC(=O)[C@H](C)[C@@]3(O)[C@@H](OC(C)=O)[C@@H]12,0%,> 100 µM,> 100 µM
C=C1/C=C\[C@H](OC(=O)COC(C)=O)[C@@]2(C)[C@@H](OC(C)=O)CC[C@]3(CO3)[C@@H]2[C@H](OC(C)=O)[C@]2(O)[C@@H](C)C(=O)O[C@H]2[C@H]1Cl,0%,> 100 µM,> 100 µM
Nc1ccn([C@@H]2CS[C@H](CO)O2)c(=O)n1 [LAMIVUDINE],70%,–,–
C=C1[C@H](OC(C)=O)C[C@H](OC(=O)CC)[C@@]2(C)[C@@H](OC(C)=O)CC[C@]3(CO3)[C@@H]2[C@H](OC(C)=O)[C@]2(O)[C@@H](C)C(=O)O[C@H]2[C@H]1Cl,0%,> 100 µM,> 100 µM
C=C1C[C@H](OC(C)=O)[C@H](OC(C)=O)[C@@]2(C)[C@H]1[C@H](OC(C)=O)[C@@]13O[C@@H](C(=C)[C@H](Cl)[C@@H]1OC(=O)[C@@H]3C)[C@@H](O)[C@@H]2OC(C)=O,0%,> 100 µM,> 100 µM
C=C1[C@H](OC(C)=O)C[C@H](OC(C)=O)[C@@]2(C)[C@@H](OC(C)=O)CC[C@]3(CO3)[C@@H]2[C@H](OC(C)=O)[C@]2(O)[C@@H](C)C(=O)O[C@H]2[C@H]1Cl,39%,> 100 µM,> 100 µM
